Measurements as given in US12116343B2, “Inhibitors of APOL1 and methods of using same” (Vertex Pharmaceuticals Incorporated, priority 2020, dated 2024).

The compounds below were run against T1, APOL1 G1 Protein (Homo sapiens, UniProt O14791, I384M/S342G) (assay: Trypanosoma brucei brucei lysis assay using APOL1 recombinant protein (AlamarBlue viability)). Details: Table 24, Compounds 287 to 465; read-out: Trypanosoma Assay (IC50).
T1 sequence (O14791 28-398 S342G/I384M): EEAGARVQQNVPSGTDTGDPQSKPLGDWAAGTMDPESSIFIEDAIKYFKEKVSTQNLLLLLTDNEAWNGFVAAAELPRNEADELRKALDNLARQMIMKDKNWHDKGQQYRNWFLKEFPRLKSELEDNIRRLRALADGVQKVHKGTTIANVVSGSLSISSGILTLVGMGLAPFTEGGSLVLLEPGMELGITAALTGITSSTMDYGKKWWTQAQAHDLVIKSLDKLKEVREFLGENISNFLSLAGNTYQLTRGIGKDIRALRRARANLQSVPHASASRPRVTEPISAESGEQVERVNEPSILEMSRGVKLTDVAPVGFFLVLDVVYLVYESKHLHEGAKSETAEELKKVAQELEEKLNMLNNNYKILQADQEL
Format: cell-based
Outline: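 Bloodstream-form T. b. brucei Lister 427 VSG 221, 120,000 parasites/well in phenol red-free, FBS-free medium, lysed by recombinant APOL1 G1 with compound (10-point dose response, 0.1% DMSO final). Viability read by AlamarBlue fluorescence against a parasite standard curve.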
In the case of NC(=O)CNCC1CC(c2c(-c3ccc(F)cc3)[nH]c3c(F)cc(F)cc23)C1 (stereo not shown) [Compound 433, 2-(((3-(5,7-difluoro-2-(4-fluorophenyl)-1H-indol-3-yl)cyclobutyl)methyl)amino)acetamide], the IC50 is reported as less than 0.25 µM.
For NC(=O)CNC[C@H]1C[C@@H](c2c(-c3ccc(F)cc3)[nH]c3c(F)cc(F)cc32)C1 [Compound 447], the IC50 was less than 0.25 µM.
In the case of NC(=O)CC1CC(c2c(-c3ccc(F)cc3)[nH]c3c(F)cc(F)cc23)C1 (stereo not shown) [Compound 455], the IC50 is reported as less than 0.25 µM.

Same assay, conditions: Trypanosoma Assay (IC50), Trypanosoma brucei brucei lysis, recombinant APOL1, AlamarBlue
For O=C([C@H]1C[C@H](c2c(-c3ccc(F)cc3)[nH]c3c(F)cc(F)cc32)C1)N1CCC(O)(O)CC1 [Compound 127], the IC50 was 0.25 to 1 µM.

Same assay, conditions: Trypanosoma brucei brucei lysis, recombinant APOL1, AlamarBlue; read-out: Trypanosoma Assay (IC50)
With CN(C(=O)[C@H]1C[C@H](c2c(-c3ccc(F)cc3)[nH]c3c(F)cc(F)cc32)C1)C1(CO)CC1 [Compound 58] the IC50 was 0.25 to 1 µM.
With O=C(NC1(CCO)CC1)[C@H]1C[C@H](c2c(-c3ccc(F)cc3)[nH]c3c(F)cc(F)cc32)C1 [Compound 59] the IC50 was 0.25 to 1 µM.
For CC(N)(C(=O)NC(=O)[C@H]1C[C@H](c2c(-c3ccc(F)cc3)[nH]c3c(F)cc(F)cc32)C1)C(F)(F)F (stereo partly shown) [Compound 60], the IC50 was 0.25 to 1 µM.
For C[C@@H](NC(=O)[C@H]1C[C@H](c2c(-c3ccc(F)cc3)[nH]c3c(F)cc(F)cc32)C1)C(=O)N(C)C [Compound 61], the IC50 was greater than 1 µM.
Work on CN(C)C(=O)CN(C)C(=O)[C@H]1C[C@H](c2c(-c3ccc(F)cc3)[nH]c3c(F)cc(F)cc32)C1 [Compound 62] yielded an IC50 greater than 1 µM.
For CC(C)N1CCN(C(=O)[C@H]2C[C@H](c3c(-c4ccc(F)cc4)[nH]c4c(F)cc(F)cc43)C2)CC1=O [Compound 63], the IC50 was greater than 1 µM.
With CCNC(=O)[C@@H]1CCCN1C(=O)[C@H]1C[C@H](c2c(-c3ccc(F)cc3)[nH]c3c(F)cc(F)cc32)C1 [Compound 64] the IC50 was greater than 1 µM.
C[C@H](NC(=O)[C@H]1C[C@H](c2c(-c3ccc(F)cc3)[nH]c3c(F)cc(F)cc32)C1)C(=O)N(C)C [Compound 65] gave an IC50 of 0.25 to 1 µM.
CC(C)(NC(=O)[C@H]1C[C@H](c2c(-c3ccc(F)cc3)[nH]c3c(F)cc(F)cc32)C1)C(=O)N1CCOCC1 [Compound 66] showed an IC50 greater than 1 µM.
Work on CN1CCN(C(=O)CNC(=O)[C@H]2C[C@H](c3c(-c4ccc(F)cc4)[nH]c4c(F)cc(F)cc43)C2)CC1 [Compound 67] yielded an IC50 greater than 1 µM.
In the case of O=C(NCC1(O)CCCC1)[C@H]1C[C@H](c2c(-c3ccc(F)cc3)[nH]c3c(F)cc(F)cc32)C1 [Compound 69], the IC50 is reported as greater than 1 µM.
In the case of CN1CC(CNC(=O)[C@H]2C[C@H](c3c(-c4ccc(F)cc4)[nH]c4c(F)cc(F)cc43)C2)CC1=O (stereo partly shown) [Compound 70], the IC50 is reported as greater than 1 µM.
In the case of Cn1ccc(CNC(=O)[C@H]2C[C@H](c3c(-c4ccc(F)cc4)[nH]c4c(F)cc(F)cc43)C2)n1 [Compound 71], the IC50 is reported as less than 0.25 µM.
COCc1cc(CNC(=O)[C@H]2C[C@H](c3c(-c4ccc(F)cc4)[nH]c4c(F)cc(F)cc43)C2)n[nH]1 [Compound 72] was tested, and the IC50 was greater than 1 µM.
Compound Cc1cc(CNC(=O)[C@H]2C[C@H](c3c(-c4ccc(F)cc4)[nH]c4c(F)cc(F)cc43)C2)nn1C [Compound 73] has an IC50 of 0.25 to 1 µM.
With CC1(O)CN(C(=O)[C@H]2C[C@H](c3c(-c4ccc(F)cc4)[nH]c4c(F)cc(F)cc43)C2)C1 [Compound 74] the IC50 was 0.25 to 1 µM.
With O=C(NC(CO)CF)[C@H]1C[C@H](c2c(-c3ccc(F)cc3)[nH]c3c(F)cc(F)cc32)C1 (stereo partly shown) [Compound 78] the IC50 was less than 0.25 µM.
For CN(CCO)C(=O)[C@H]1C[C@H](c2c(-c3ccc(F)cc3)[nH]c3c(F)cc(F)cc32)C1 [Compound 79], the IC50 was less than 0.25 µM.
O=C(NCC1(O)CCCCC1)[C@H]1C[C@H](c2c(-c3ccc(F)cc3)[nH]c3c(F)cc(F)cc32)C1 [Compound 80] gave an IC50 greater than 1 µM.
For C[C@H](O)CNC(=O)[C@H]1C[C@H](c2c(-c3ccc(F)cc3)[nH]c3c(F)cc(F)cc32)C1 [Compound 82], the IC50 was 0.25 to 1 µM.
O=C(NCC1(CO)COC1)[C@H]1C[C@H](c2c(-c3ccc(F)cc3)[nH]c3c(F)cc(F)cc32)C1 [Compound 83] showed an IC50 greater than 1 µM.
O=C(OC1CN(C(=O)[C@H]2C[C@H](c3c(-c4ccc(F)cc4)[nH]c4c(F)cc(F)cc43)C2)C1)C1CCOCC1 [Compound 85] gave an IC50 of less than 0.25 µM.
For CC(C)(O)C1CN(C(=O)[C@H]2C[C@H](c3c(-c4ccc(F)cc4)[nH]c4c(F)cc(F)cc43)C2)C1 [Compound 86], the IC50 was greater than 1 µM.
O=C([C@H]1C[C@H](c2c(-c3ccc(F)cc3)[nH]c3c(F)cc(F)cc32)C1)N1CCC(O)(CO)CC1 [Compound 87] was tested, and the IC50 was greater than 1 µM.
NC(=O)[C@@H]1CCCN1C(=O)[C@H]1C[C@H](c2c(-c3ccc(F)cc3)[nH]c3c(F)cc(F)cc32)C1 [Compound 88] was tested, and the IC50 was greater than 1 µM.
For CC(O)CN(C)C(=O)[C@H]1C[C@H](c2c(-c3ccc(F)cc3)[nH]c3c(F)cc(F)cc32)C1 (stereo partly shown) [Compound 90], the IC50 was 0.25 to 1 µM.
CC(=O)NC1CCCN(C(=O)[C@H]2C[C@H](c3c(-c4ccc(F)cc4)[nH]c4c(F)cc(F)cc43)C2)C1 (stereo partly shown) [Compound 91] gave an IC50 greater than 1 µM.
Compound NC(=O)C1CCCCN1C(=O)[C@H]1C[C@H](c2c(-c3ccc(F)cc3)[nH]c3c(F)cc(F)cc32)C1 (stereo partly shown) [Compound 92] has an IC50 of 0.25 to 1 µM.
CN(CC(C)(C)O)C(=O)[C@H]1C[C@H](c2c(-c3ccc(F)cc3)[nH]c3c(F)cc(F)cc32)C1 [Compound 93] gave an IC50 greater than 1 µM.
Work on O=C([C@H]1C[C@H](c2c(-c3ccc(F)cc3)[nH]c3c(F)cc(F)cc32)C1)N1CCCCC1CCO (stereo partly shown) [Compound 94] yielded an IC50 greater than 1 µM.
